Consider 3 compounds from patent US20050004084A1, “Aspirin-containing trasdermal pharmaceutical composition for the treatment of calcification” (priority 2001, published 2005).

The nature of data set [1]: Examination of the metabolism of acetylsalicylic acid: ASA and SA in plasma by HPLC after gel applied onto skin. In kind it is in vivo, New Zealand giant white rabbits. Particulars: for concentration at 0 h / concentration at 0.25 h / concentration at 0.5 h / concentration at 0.75 h / concentration at 0.75 hour / concentration at 1 h / concentration at 1.5 h / concentration at 2 h / concentration at 3 h / concentration at 4 h: pH 6.5, Salicylic acid and acetysalicylic acid contents of blood samples. The method, then:
The tests were performed on 6 week old male New Zealand giant white rabbits. […] The hair was shaved off from the backs of the rabbits, and 0.6 g of a gel with the following composition was applied onto the skin:
Blood samples were taken periodically as indicated in Table 1 from the jugular veins of the animals, the samples were centrifuged to separate the plasma, and the acetylsalicylic acid (ASA) and salicylic acid (SA) contents of the samples were measured by HPLC. The centrifuged plasma was stored at −22° C. until the time of analysis in order to avoid any ex vivo metabolism due to the presence of esterases in the plasma.
The above test was repeated on the same animals with the difference that 0.01 g of sodium carbonate was also added to the gel and the gel was buffered to pH 6.5.

Data set [2] is described as follows: Urine analyses on rabbits kept on specific calcium-rich diet. In kind it is in vivo. The method, then:
From the data of Table 2 it appears that the amount of acetylsalicylic acid present in the blood of the animals stabilized after a short induction period. […] This test was performed on healthy animals, where no dissolution of calcification and no formation of calcium acetylsalicylate due to the dissolution took place.

Where [3] appears, read: male, New Zealand giant white, rabbit, in vivo.
Where [4] appears, read: male, New Zealand giant white, rabbit, in vivo, 0 h, pH 6.5.
The mark [5] stands for this setting: male, New Zealand giant white, rabbit, in vivo, 0.75 h, pH 6.5.
Where [6] appears, read: male, New Zealand giant white, rabbit, in vivo, 0.75 hour, pH 6.5.
Where [7] appears, read: male, New Zealand giant white, rabbit, in vivo, Salicylic acid and acetysalicylic acid contents of blood samples.

`CC(=O)Oc1ccccc1C(=O)O` [ASA, acetylsalicylic acid]: in data set [1] (setting [3]), the “time within which acetylsalicylic acid metabolizes in the body to salicylic acid and acetic acid” value was not above 15 min; the concentration at 0 h was 0 ng/mL; the concentration at 0.25 h turned out to be 570 ng/mL; the concentration at 0.5 h was 5240 ng/mL. In data set [1] (setting [3]), this compound registered a concentration at 0.75 h of 9440 ng/mL, a concentration at 0.75 hour of 7900 ng/mL, a concentration at 1 h of 7700 ng/mL and a concentration at 1.5 h of 7120 ng/mL. Besides, in data set [1] (setting [3]), the concentration at 2 h came to 6980 ng/mL, the concentration at 3 h came out at 5650 ng/mL and the concentration at 4 h came out at 4550 ng/mL. The “Salicylic acid and acetysalicylic acid contents of blood samples” value in data set [1] (setting [4]) is given as 0 μg/ml of plasma. Besides, the “Salicylic acid and acetysalicylic acid contents of blood samples” value in data set [1] (male, New Zealand giant white, rabbit, in vivo, 0 hours) is 0 μg/ml of plasma. Besides, the “Salicylic acid and acetysalicylic acid contents of blood samples” value in data set [1] (setting [5]) is on record as 9.68 μg/ml of plasma. Moreover, in data set [1] (setting [6]), the “Salicylic acid and acetysalicylic acid contents of blood samples” value is 8.84 μg/ml of plasma. In addition, the “Salicylic acid and acetysalicylic acid contents of blood samples” value in data set [1] (male, New Zealand giant white, rabbit, in vivo, 1.75 hours) is reported as 0.136 μg/ml of plasma. Also, the “acetylsalicylic acid remained un-metabolized” value in data set [1] (male, New Zealand giant white, rabbit, in vivo, 4 h, pH 6.5) is given as 25%. In data set [1] (setting [7]), this compound yielded a concentration at 0 hours of 0 ng/mL, a concentration at 0.75 hours of 115 ng/mL, a concentration at 1 hours of 98 ng/mL and a concentration at 1.75 hours of 76 ng/mL. Further, the concentration at 2 hours in data set [1] (setting [7]) turned out to be 163 ng/mL. The “Salicylic acid and acetysalicylic acid contents of blood samples” value in data set [1] (rabbit, in vivo) is given as “BLD”. In addition, in data set [1] (rabbit, in vivo, pH 6.5), the “metabolism of acetylsalicylic acid (observation)” value is “extreme slow down in the metabolism” and the “start of metabolism of acetylsalicylic acid” value is reported as “third-fourth hour”.
For the compound `O=C(O)c1ccccc1O` [SA, salicylic acid], in data set [1] (Rabbit 1, 0 hours, 0.6 g gel without carbonate on skin), the “Salicylic acid and acetysalicylic acid contents of blood samples” value was “BLD”. Also, in data set [1] (Rabbit 2, 0 hours, 0.6 g gel without carbonate on skin), the “Salicylic acid and acetysalicylic acid contents of blood samples” value is reported as “BLD”. Moreover, the “Salicylic acid and acetysalicylic acid contents of blood samples” value in data set [1] (Rabbit 3, 0 hours, 0.6 g gel without carbonate on skin) was “BLD”. The “Salicylic acid and acetysalicylic acid contents of blood samples” value in data set [1] (Rabbit 4, 0 hours, 0.6 g gel without carbonate on skin) is given as “BLD”. Besides, in data set [1] (gel without carbonate, Table 1), the “salicylic acid content of the blood samples relative to the acetylsalicylic acid content” value was “at least one hundredfold”. The “Salicylic acid and acetysalicylic acid contents of blood samples” value in data set [1] (setting [4]) is recorded as 0 μg/ml of plasma. Besides, in data set [1] (setting [5]), the “Salicylic acid and acetysalicylic acid contents of blood samples” value is on record as 2.54 μg/ml of plasma. Moreover, the “Salicylic acid and acetysalicylic acid contents of blood samples” value in data set [1] (setting [6]) is given as 1.97 μg/ml of plasma. The concentration at 0.75 hours in data set [1] (setting [7]) is 40800 ng/mL. In data set [1] (setting [3]), the concentration at 0 h amounted to 0 ng/mL, the concentration at 0.25 h was found to be 900 ng/mL, the concentration at 0.5 h was 980 ng/mL and the concentration at 0.75 h came to 2810 ng/mL. In data set [1] (setting [3]), this compound yielded a concentration at 0.75 hour of 2100 ng/mL, a concentration at 1 h of 3020 ng/mL, a concentration at 1.5 h of 2690 ng/mL and a concentration at 2 h of 3110 ng/mL. For the same compound, in data set [1] (setting [3]), the concentration at 3 h was found to be 7980 ng/mL and the concentration at 4 h was 12200 ng/mL.
For calcium acetylsalicylate, in data set [2], the “excretion / further metabolism” value was “can no longer be metabolized but is excreted from the organism in unchanged form”.
